Row | SMILES | melting point [°C]
1 | CN1C(=O)C(c2ccc(OC(F)F)cc2)(c2cccc(CCCCC#N)c2)N=C1N (centres unmarked) [Example 14, 5-(3-{2-Amino-4-[4-(difluoromethoxy)phenyl]-1-methyl-5-oxo-4,5-dihydro-1H-imidazol-4-yl}phenyl)pentanenitrile] | 65
2 | C=C(F)CCc1cccc(C2(c3ccc(OC(F)F)cc3)N=C(N)N(C)C2=O)c1 (centres unmarked) [Example 17, 2-Amino-5-[4-(difluoromethoxy)phenyl]-5-[3-(3-fluorobut-3-en-1-yl)phenyl]-3-methyl-3,5-dihydro-4H-imidazol-4-one] | 58 to 60
3 | CN1C(=O)C(c2ccc(OC(F)F)cc2)(c2cccc(CCCC(F)F)c2)N=C1N (centres unmarked) [Example 19, 2-Amino-5-[3-(4,4-difluorobutyl)phenyl]-5-[4-(difluoromethoxy)phenyl]-3-methyl-3,5-dihydro-4H-imidazol-4-one] | 54 to 57
4 | CN1C(=O)C(c2ccc(OC(F)F)cc2)(c2cccc(CCCCO)c2)N=C1N (centres unmarked) [Example 21, 2-Amino-5-[4-(difluoromethoxy)phenyl]-5-[3-(4-hydroxybutyl)phenyl]-3-methyl-3,5-dihydro-4H-imidazol-4-one] | 63 to 66
5 | COCCCc1cccc(C2(c3ccc(OC(F)F)cc3)N=C(N)N(C)C2=O)c1 (centres unmarked) [Example 24, 2-Amino-5-[4-(difluoromethoxy)phenyl]-5-[3-(3-methoxypropyl)phenyl]-3-methyl-3,5-dihydro-4H-imidazol-4-one] | 48 to 50
6 | COCCCCc1cccc(C2(c3ccc(OC(F)F)cc3)N=C(N)N(C)C2=O)c1 (centres unmarked) [Example 28, 2-amino-5-[4-(difluoromethoxy)phenyl]-5-[3-(4-methoxybutyl)phenyl]-3-methyl-3,5-dihydro-4H-imidazol-4-one] | 36 to 39
7 | CCCNC(=O)c1cccc(C2(c3ccc(OC(F)F)cc3)N=C(N)N(C)C2=O)c1 (centres unmarked) [Example 29, 3-{2-Amino-4-[4-(difluoromethoxy)phenyl]-1-methyl-5-oxo-4,5-dihydro-1H-imidazol-4-yl}-N-propylbenzamide] | 93 to 96
8 | CN1C(=O)C(c2ccc(OC(F)F)cc2)(c2cccc(COCCF)c2)N=C1N (centres unmarked) [Example 30, 2-Amino-5-[4-(difluoromethoxy)phenyl]-5-{3-[(2-fluoroethoxy)methyl]phenyl}-3-methyl-3,5-dihydro-4H-imidazol-4-one] | 40 to 43
9 | CN1C(=O)C(c2ccc(OC(F)F)cc2)(c2cccc(COCCC(F)(F)F)c2)N=C1N (centres unmarked) [Example 31, 2-amino-5-[4-(difluoromethoxy)phenyl]-3-methyl-5-{3-[(3,3,3-trifluoropropoxy)methyl]phenyl}-3,5-dihydro-4H-imidazol-4-one] | 46 to 48
10 | COCc1cccc(C2(c3ccc(OC(F)F)cc3)N=C(N)N(C)C2=O)c1 (centres unmarked) [Example 32, 2-amino-5-[4-(difluoromethoxy)phenyl]-5-[3-(methoxymethyl)phenyl]-3-methyl-3,5-dihydro-4H-imidazol-4-one] | 70 to 72
11 | CCCCOCc1cccc(C2(c3ccc(OC(F)F)cc3)N=C(N)N(C)C2=O)c1 (centres unmarked) [Example 33, 2-amino-5-[3-(butoxymethyl)phenyl]-5-[4-(difluoromethoxy)phenyl]-3-methyl-3,5-dihydro-4H-imidazol-4-one] | 37 to 39
12 | CN1C(=O)C(c2ccc(OC(F)F)cc2)(c2cccc(COCC3CC3)c2)N=C1N (centres unmarked) [Example 34, 2-amino-5-{3-[(cyclopropylmethoxy)methyl]phenyl}-5-[4-(difluoromethoxy)phenyl]-3-methyl-3,5-dihydro-4H-imidazol-4-one] | 47 to 50
13 | CCOCc1cccc(C2(c3ccc(OC(F)F)cc3)N=C(N)N(C)C2=O)c1 (centres unmarked) [Example 35, 2-amino-5-[4-(difluoromethoxy)phenyl]-5-[3-(ethoxymethyl)phenyl]-3-methyl-3,5-dihydro-4H-imidazol-4-one] | 45 to 48
14 | CCCOCc1cccc(C2(c3ccc(OC(F)F)cc3)N=C(N)N(C)C2=O)c1 (centres unmarked) [Example 36, 2-amino-5-[4-(difluoromethoxy)phenyl]-3-methyl-5-[3-(propoxymethyl)phenyl]-3,5-dihydro-4H-imidazol-4-one] | 40 to 43
15 | CN1C(=O)C(c2ccc(OC(F)F)cc2)(c2cccc(COC(CF)CF)c2)N=C1N (centres unmarked) [Example 37, 2-amino-5-[4-(difluoromethoxy)phenyl]-5-(3-{[2-fluoro-1-(fluoromethyl)ethoxy]methyl}phenyl)-3-methyl-3,5-dihydro-4H-imidazol-4-one] | 46 to 50
16 | CN1C(=O)C(c2ccc(OC(F)F)cc2)(c2cccc(COCC(F)(F)C(F)F)c2)N=C1N (centres unmarked) [Example 39, 2-amino-5-[4-(difluoromethoxy)phenyl]-3-methyl-5-{3-[(2,2,3,3-tetrafluoropropoxy)methyl]phenyl}-3,5-dihydro-4H-imidazol-4-one] | 48 to 50
17 | CN1C(=O)C(c2ccc(OC(F)F)cc2)(c2cccc(CCF)c2)N=C1N (centres unmarked) [Example 55, 2-Amino-5-[4-(difluoromethoxy)phenyl]-5-[3-(2-fluoroethyl)phenyl]-3-methyl-3,5-dihydro-4H-imidazol-4-one] | 60 to 63
18 | CN1C(=O)C(c2ccc(OC(F)F)cc2)(c2cccc(OCCCF)c2)N=C1N (centres unmarked) [Example 59, 2-Amino-5-[4-(difluoromethoxy)phenyl]-5-[3-(3-fluoropropox-1-yl)phenyl]-3-methyl-3,5-dihydro-4H-imidazol-4-one] | 161 to 162
19 | CN1C(=O)C(c2ccc(OC(F)F)cc2)(c2cccc(OCCCC(F)(F)F)c2)N=C1N (centres unmarked) [Example 62, 2-amino-5-[4-(difluoromethoxy)phenyl]-3-methyl-5-[3-(4,4,4-trifluorobutoxy)phenyl]-3,5-dihydro-4H-imidazol-4-one] | 82 to 85
20 | CN1C(=O)C(c2ccc(OC(F)F)cc2)(c2cccc(OCCCCF)c2)N=C1N (centres unmarked) [Example 64, 2-amino-5-[4-(difluoromethoxy)phenyl]-5-[3-(4-fluorobutoxy)phenyl]-3-methyl-3,5-dihydro-4H-imidazol-4-one] | 139 to 140
21 | C=CCCc1cc(C2(c3ccc(OC(F)F)cc3)N=C(N)N(C)C2=O)ccc1F (centres unmarked) [Example 84, 2-Amino-5-(3-but-3-en-1-yl-4fluorophenyl)-5-[4-(difluoromethoxy)phenyl]-3-methyl-3,5-dihydro-4H-imidazol-4-one] | 55 to 58
22 | CN1C(=O)C(c2ccc(OC(F)F)cc2)(c2cccc(C3CC(=O)C3(C)C)c2)N=C1N (centres unmarked) [Example 87, 2-Amino-5-[4-(difluoromethoxy)phenyl]-5-[3-(2,2-dimethyl-3-oxocyclobutyl)phenyl]-3-methyl-3,5-dihydro-4H-imidazol-4-one] | 172 to 174
23 | CN1C(=O)C(c2ccc(OC(F)F)cc2)(c2cccc(C3CC(=O)C3)c2)N=C1N (centres unmarked) [Example 88, 2-Amino-5-[4-(difluoromethoxy)phenyl]-3-methyl-5-[3-(3-oxocyclobutyl)phenyl]-3,5-dihydro-4H-imidazol-4-one] | 68 to 70
24 | CN1C(=O)C(c2ccc(OC(F)F)cc2)(c2cccc(C3CC(O)C3)c2)N=C1N (centres unmarked) [Example 89, 2-Amino-5-[4-(difluoromethoxy)phenyl]-5-[3-(3-hydroxycyclobutyl)phenyl]-3-methyl-3,5-dihydro-4H-imidazol-4-one] | 186 to 190
25 | CCOC(=O)C=C1CC(c2cccc(C3(c4ccc(OC(F)F)cc4)N=C(N)N(C)C3=O)c2)C1 (centres unmarked) [Example 90, Ethyl [3-(3-{2-Amino-4-[4-(difluoromethoxy)phenyl]-1-methyl-5-oxo-4,5-dihydro-1H-imidazol-4-yl}phenyl)cyclobutylidene]acetate] | 78 to 80
26 | COC(=O)CC1CC(c2cccc(C3(c4ccc(OC(F)F)cc4)N=C(N)N(C)C3=O)c2)C1 (centres unmarked) [Example 92, methyl [3-(3-{2-amino-4-[4-(difluoromethoxy)phenyl]-1-methyl-5-oxo-4,5-dihydro-1H-imidazol-4-yl}phenyl)cyclobutyl]acetate] | 68 to 70

— patent publication US7423158B2, “Amino-5-[4-(difluoromethoxy)phenyl]-5-phenylimidazolone compounds for the inhibition of β-secretase” (Wyeth, priority 2005, dated 2008)
